Data reported in patent publication US10828267B2, “Therapeutic regimens and methods for improving visual function in visual disorders associated with an endogenous retinoid deficiency” (RETINAGENIX THERAPEUTICS, INC., priority 2012, dated 2020).

Experiment: Interim pharmacokinetics, multiple-dose study (Example 5)
Type: in vivo, human
Method: Interim Pharmacokinetic results of the study were derived from plasma concentrations of 9-cis-retinyl acetate and its metabolites, measured throughout the study period at prescribed time points. The scope of this interim PK analysis encompasses samples from Cohort 1 including the placebo (n=2), 40 mg/m^2 (n=6) and 60 mg/m^2 (n=2) dose groups obtained in treatment cycles 1, 2 and 3.
The plasma samples were analyzed by liquid chromatography-mass spectrometry-mass spectrometry (LC/MS/MS) for parent drug and potential metabolites. Noncompartmental (NCA) pharmacokinetic (PK) parameters such as AUC were obtained using the WinNonlin software with observational determination of Cmax, tmax, and duration of concentrations above baseline (TD).

accumulation of 9-cis-retinol and retinyl ester metabolites on multiple-dosing (40 mg/m^2, repeated seven day cycles): slight to modest accumulation
plasma concentrations (Cohort 1, 40 and 60 mg/m^2, cycles 1-3): low and transient
Compound: CC(=O)OC/C=C(C)/C=C/C=C(C)\C=C\C1=C(C)CCCC1(C)C [9-cis-Retinyl acetate, (2E, 4E, 6Z, 8E)-3,7-dimethyl-9-(2,6,6-trimethylcyclohex-1-en-1-yl) nona-2,4,6,8-tetraen-1-yl acetate]
accumulation of metabolites from cycle to cycle (40 mg/m^2, Cycles 1, 2 and 3): no accumulation being observed from cycle to cycle
